The values below come from patent US5587392A, “Azolyl methyl phenyl derivatives having aromatase inhibitory activity” (Mochida Pharmaceutical Co., Ltd., priority 1994, dated 1996).

“And” between values parts separate entries of the source, which are not always exact repeats. Equal entries are not always repeated. Bounds are passed on as bounds.

One series deals with plasma aldosterone. As to the kind of experiment: Lowering effect on plasma aldosterone. The format is in vivo, male SD rats.
Series [1] relates to plasma 17α-hydroxyprogesterone. As to the kind of experiment: Elevating effect on plasma 17α-hydroxyprogesterone. Format: in vivo, male SD rats.
Series [2] concerns biosynthesis of aldosterone. Particulars: related art; cited from earlier work.
Another series has as its target T1, aromatase from rat ovary (Rattus norvegicus, UniProt P22443).
T1 construct: Using as an enzyme sample the ovarian microsome fraction from a female rat; from tissue; host or cells: rat ovary, microsome fraction (female rat)
T1 sequence (P22443 1-508): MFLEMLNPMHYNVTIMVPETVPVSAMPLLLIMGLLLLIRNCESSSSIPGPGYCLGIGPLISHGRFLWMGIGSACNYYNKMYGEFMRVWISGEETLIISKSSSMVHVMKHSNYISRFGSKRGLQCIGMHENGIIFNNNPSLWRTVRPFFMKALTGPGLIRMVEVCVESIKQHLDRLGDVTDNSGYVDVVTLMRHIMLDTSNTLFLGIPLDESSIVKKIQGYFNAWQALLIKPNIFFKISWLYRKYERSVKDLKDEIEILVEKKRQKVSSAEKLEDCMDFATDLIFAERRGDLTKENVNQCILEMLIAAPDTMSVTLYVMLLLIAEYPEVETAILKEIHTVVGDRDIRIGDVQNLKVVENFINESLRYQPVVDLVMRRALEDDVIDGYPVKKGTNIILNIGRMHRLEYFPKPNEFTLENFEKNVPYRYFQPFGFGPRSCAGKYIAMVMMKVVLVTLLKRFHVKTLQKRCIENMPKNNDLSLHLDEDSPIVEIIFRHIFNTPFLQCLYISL
As to the kind of experiment: Inhibitory activity on aromatase from rat ovary. The conditions noted are these: rat ovarian microsomes, 30 nM [1β-3H] androstenedione, pH 7.4, 37° C., 15 minutes; read-out: IC50 value. Format: biochemical.

The next series has as its system plasma estradiol. As to the kind of experiment: Decreasing activity on blood estrogen (plasma estradiol, PMSG-treated rats). Format: in vivo, female SD rats. The conditions noted are these: Rattus norvegicus, po, 4 hours after dosing, read-out: Ratio in plasma estradiol decrease. Here is the method:
More specifically, pregnant mare serum gonadotropin (PMSG) was subcutaneously administered to female SD rats aged 3 weeks, at a dose of 200 IU/rat. […] Four hours after the dosing of the test compound, blood was sampled, and plasma estradiol was messuered by radioimmunoassay(RIA). The decreasing ratio (%) in plasma estradiol levels was calculated by comparing with control groups.

The test system of the next series is corticosterone. Description: Effect on plasma levels of corticosterone. The format is in vivo, male SD rats. The conditions noted are these: even at the highest doses (10 mg/kg; CGS 16949A 1 mg/kg).
The test system of the next series is progesterone. As to the kind of experiment: Effect on plasma levels of progesterone. The format is in vivo, male SD rats. The conditions noted are these: even at the highest doses (10 mg/kg; CGS 16949A 1 mg/kg).
The test system of the next series is testosterone. As to the kind of experiment: Effect on plasma levels of testosterone. Particulars: even at the highest doses (10 mg/kg; CGS 16949A 1 mg/kg). Format: in vivo, male SD rats.
In series [3] the test system is steroid hormone level in blood. Description: Effects on the synthesis of various steroid hormones, compared with the dose lowering blood estrogen. The conditions noted are these: 10 mg/kg. Format: in vivo, rats.
Series [4] deals with cleavage enzymes of cholesterol side chains. Particulars: related art; cited from earlier work.

Consider `N#Cc1ccc(C2CCCc3cncn32)cc1` (centres unmarked) [CGS 16949A, 5-(p-cyanophenyl)-5,6,7,8-tetrahydroimidazo[1,5-a]pyridine], for which the minimal effective dose with plasma aldosterone (Rattus norvegicus, po, read-out: dose decreasing plasma aldosterone level) is not below 0.1 mg/kg. In the series with plasma aldosterone (rat, in vivo), the “Decrease in plasma aldosterone” value was 37% and 55%; the “change of plasma levels of aldosterone” value is “did change”. Moreover, the minimal effective dose in [1] (Rattus norvegicus, po, read-out: dose elevating plasma 17α-hydroxyprogesterone level) was not below 0.1 mg/kg. For the same compound, in [1] (rat, in vivo), the “Elevation in plasma 17α-hydroxyprogesterone” value is 169% and 313%; the “change of plasma levels of 17α-hydroxyprogesterone” value was “did change”. The “inhibition of the biosynthesis of aldosterone” value in series [2] is listed as “inhibits the biosynthesis of aldosterone”.
Turning to `Cn1nnc2ccc(Oc3ccc(C#N)cc3Cn3cncn3)cc21` [Example 52, 4-[6-(1-methyl-1H-benzotriazoyloxy)]-3-(1H-1,2,4-triazol-1-ylmethyl)benzonitrile], at aromatase from rat ovary, the IC50 was determined as 0.4 nM. Besides, the inhibition in vivo at 0.001 mg/kg with plasma estradiol (0.001 mg/kg orally) was determined as 22%. Besides, in the series with plasma estradiol (0.01 mg/kg orally), the inhibition in vivo at 0.01 mg/kg was 77%. The inhibition in vivo at 0.1 mg/kg in the series with plasma estradiol (0.1 mg/kg orally) stood at 91%. In addition, in the series with corticosterone, the “effect on plasma levels of corticosterone” value is given as “neither the compound of Example 41 nor the compound of Example 52 in accordance with the present invention had any effect”. Moreover, in the series with progesterone, the “effect on plasma levels of progesterone” value is reported as “neither the compound of Example 41 nor the compound of Example 52 in accordance with the present invention had any effect”. In addition, the “effect on plasma levels of testosterone” value in the series on testosterone is “neither the compound of Example 41 nor the compound of Example 52 in accordance with the present invention had any effect”. The “effect on any steroid hormone level in blood” value in [3] was “Neither the compound of Example 41 nor the compound of Example 52 in accordance with the present invention had any effect”.
In the case of `CCC1(c2ccc(N)cc2)CCC(=O)NC1=O` (centres unmarked) [AG, Aminoglutethimide], in series [4], the “decrease of glucocorticoids and mineral corticoids” value was “causes therefore the decrease of glucocorticoids and mineral corticoids”; the “potency to inhibit cleavage enzymes of cholesterol side chains” value is recorded as “higher potency to inhibit cleavage enzymes of cholesterol side chains”.

Usually IC50 stands for the concentration at which inhibition is half-maximal.
